Test results reported in patent publication US20020052377A1, “Method for treating angina” (priority 2000, published 2002).
≈ marks a conversion by molar mass, not a printed value.

Key:
[1] = test system: patients with chronic stable angina pectoris; test: Safety, tolerability and hemodynamics, IR regimens (Example 3); type: in vivo, human
Protocol: After each 1 week period, patients returned to the exercise laboratory in the morning, at least 1 hour after a light breakfast, for an ETT. This was designated the trough ETT; the trough ETTs were performed at the same time of day for each patient. After completing the trough ETT, the patient received the next scheduled blinded medication dose from the blister pack used that week. Another ETT was performed 1 hour after the administered dose. This was designated the peak ETT. Blood samples were obtained at trough (approximately 8 hours after dosing) and at peak (1 hour after dosing). Other standard laboratory tests were monitored regularly throughout the study. Blood pressure (by cuff) and heart rate were monitored before all ETTs, during the ETT, during the last minute of each stage of the test, at onset angina, at the point of maximum exercise, and during recovery (every minute for 4 minutes, then every 5 minutes until values returned to baseline). Heart rates also was monitored continuously and standard 12-lead ECG recordings were done immediately before exercise with the patient standing on the treadmill, at the end of each stage of exercise, at the maximally tolerated exercise load, and at the termination of exercise.

[2] = Solubility of ranolazine in aqueous solutions by pH; type: physicochemical
[3] = test system: regional myocardial ischemia and reperfusion; test: Rat model of regional myocardial ischemia and reperfusion (LAD-occlusion); type: in vivo, Male Wistar rats; details: LAD-occlusion 25 min, reperfusion 2 h, bolus 10 mg/kg + infusion 96. mg/kg/h from 30 min before occlusion, mean±SEM, n=12
Protocol: The aim of this study was to investigate whether ranolazine exerts beneficial effects in a rat model of regional myocardial ischemia and reperfusion. Methods: Male Wistar rats were subjected to no LAD-occlusion (sham) or LAD-occlusion (25 min) and reperfusion (2 h). Saline (bolus: 2.4 mL/kg+infusion: 24. mL/kg/h) or ranolazine (bolus: 10 mg/kg +infusion; 96. mg/kg/h) were infused 30 min before LAD-occlusion and throughout the experiment. At the end of the experiment area at risk (AR, % of left ventricle), infarct size (IS, % of AR), and plasma cardiac troponin T (cTnT, ng/mL) were determined. The following groups were studied: Group 1. sham saline (n=4), Group 2. saline control (n=12), Group 3. ranolazine (n=12).

[4] = Solution pH 7.59 (unbuffered water)

USP Solubility Class ([2]; Solution pH 4.81): Freely soluble | USP Solubility Class ([2]; Solution pH 4.89): Soluble | USP Solubility Class ([2]; Solution pH 4.90): Soluble | USP Solubility Class ([2]; Solution pH 5.04): Soluble | USP Solubility Class ([2]; Solution pH 5.35): Sparingly soluble | USP Solubility Class ([2]; Solution pH 5.82): Slightly soluble | USP Solubility Class ([2]; Solution pH 6.46): Slightly soluble | USP Solubility Class ([2]; Solution pH 6.73): Very slightly soluble | USP Solubility Class ([2]; Solution pH 7.08): Very slightly soluble | USP Solubility Class [2, 4]: Very slightly soluble | solubility [2, 4]: 240 µg/mL (≈ 0.561 mM) | USP Solubility Class ([2]; Solution pH 7.73): Very slightly soluble | USP Solubility Class ([2]; Solution pH 12.66): Very slightly soluble | solubility ([2]; aqueous solution, aqueous buffer, Solution pH 4.81): 161000 µg/mL (≈ 377 mM) | solubility ([2]; aqueous solution, aqueous buffer, Solution pH 4.89): 73800 µg/mL (≈ 173 mM) | solubility ([2]; aqueous solution, aqueous buffer, Solution pH 5.04): 49400 µg/mL (≈ 116 mM) | solubility ([2]; aqueous solution, aqueous buffer, Solution pH 5.35): 16700 µg/mL (≈ 39.1 mM) | solubility ([2]; aqueous solution, aqueous buffer, Solution pH 5.82): 5480 µg/mL (≈ 12.8 mM) | solubility ([2]; aqueous solution, aqueous buffer, Solution pH 6.46): 1630 µg/mL (≈ 3.81 mM) | solubility ([2]; aqueous solution, aqueous buffer, Solution pH 6.73): 830 µg/mL (≈ 1.94 mM) | solubility ([2]; aqueous solution, aqueous buffer, Solution pH 7.08): 390 µg/mL (≈ 0.912 mM) | solubility ([2]; aqueous solution, aqueous buffer, Solution pH 7.73): 170 µg/mL (≈ 0.398 mM) | solubility ([2]; aqueous solution, aqueous buffer, Solution pH 12.66): 180 µg/mL (≈ 0.421 mM) | solubility ([2]; aqueous solution, pH 4.9, aqueous buffer, Solution pH 4.90): 76400 µg/mL (≈ 179 mM)
Structure (SMILES): COc1ccccc1OCC(O)CN1CCN(CC(=O)Nc2c(C)cccc2C)CC1 (racemic) [Ranolazine, (±)-N-(2,6-dimethylphenyl)-4-[2-hydroxy-3-(2-methoxyphenoxy)propyl]-1-piperazine-acetamide]
blood glucose concentrations, lipid values or liver function tests ([1]; IR dosing regimens): no clinically significant changes | ECG intervals or complex morphology ([1]; IR dosing regimens vs placebo): no drug-related changes | tolerability ([1]; over the plasma concentrations achieved in the study): well tolerated | area at risk (AR) [3]: 48±1 % of left ventricle | infarct size (IS) [3]: 41±4 % of AR | plasma cardiac troponin T (cTnT) [3]: 12 ± 2 ng/mL
